{"source": "ChEMBL document CHEMBL1150912", "about": "“A new taxane diterpenoid from Taxus mairei” (J Nat Prod, 1998)", "key": {"[1]": {"tested_on": "HeLa", "test": "Cytotoxicity against human HeLa cells after 3 days by methylene blue assay", "assay_type": "functional, cell-based", "conditions": "72 h"}, "[2]": {"test": "Cytotoxicity against human Hep3B cells after 3 days by methylene blue assay", "assay_type": "functional, cell-based, Hep 3B2", "conditions": "72 h"}}, "note": "Starred links: 1 amine or outer side, 2 acyl side, 3 side chain; linkers in the order of their positions; H or OH if unused. Positions of bridges follow the written chain, without caps; N, C: chain ends. Non-standard residues stand in square brackets, D forms with d. Residues, ends and D or L forms follow the SMILES beside them. Chains are numbered I, II in the order given. Actinocin(1to9) = Cc1c2oc3c(C)ccc(C(=O)[*:2])c3nc-2c(C(=O)[*:1])c(N)c1=O; NMeV = CN[C@H](C(=O)O)C(C)C; Sar = CNCC(=O)O"}
{"smiles": "Cc1c2oc3c(C)ccc(C(=O)N[C@@H]4C(=O)N[C@H](C(C)C)C(=O)N5CCC[C@H]5C(=O)N(C)CC(=O)N(C)[C@@H](C(C)C)C(=O)O[C@@H]4C)c3nc-2c(C(=O)N[C@@H]2C(=O)N[C@H](C(C)C)C(=O)N3CCC[C@H]3C(=O)N(C)CC(=O)N(C)[C@@H](C(C)C)C(=O)O[C@@H]2C)c(N)c1=O", "note": "[DACTINOMYCIN] (I: T[dV]P[Sar][NMeV] / II: T[dV]P[Sar][NMeV]; ester I:1-I:C, II:1-II:C; linker I:N-II:N via Actinocin(1to9))", "values": [{"measurement": "IC50", "setting": "[1]", "value": 0.01, "unit": "µg/mL"}, {"measurement": "IC50", "setting": "[2]", "value": 0.01, "unit": "µg/mL"}]}
{"smiles": "CO[C@@]12[C@H](COC(N)=O)C3=C(C(=O)C(C)=C(N)C3=O)N1C[C@@H]1N[C@@H]12", "note": "[MITOMYCIN]", "values": [{"measurement": "IC50", "setting": "[1]", "value": 0.01, "unit": "µg/mL"}, {"measurement": "IC50", "setting": "[2]", "value": 0.01, "unit": "µg/mL"}]}
{"smiles": "CC(=O)O[C@H]1[C@@H]2[C@]3(OC(C)=O)CO[C@@H]3C[C@H](O)[C@@]2(C)[C@@H](OC(=O)c2ccccc2)[C@H](O)C2=C(C)[C@@H](O)C[C@]21C(C)(C)O", "note": "[TAXUMAIROL K]", "values": [{"measurement": "IC50", "setting": "[1]", "value": 9.2, "unit": "µg/mL"}, {"measurement": "IC50", "setting": "[2]", "value": 40, "unit": "µg/mL"}]}
